Laboratory results published in US11648242B2, “Pharmaceutical composition comprising pimavanserin, process of preparation and use thereof” (Aurobindo Pharma Ltd., priority 2019, dated 2023).
Structures can show the parent of a compound that is named as a salt.

Assays:
[1] = cited from earlier work
[2] = Particle size distribution (D90) of the API; format: physicochemical; conditions: native amorphous pimavanserin tartrate API
Bulk density of the API = format: physicochemical; conditions: native amorphous pimavanserin tartrate API

Particle size distribution of API (D90) [2]	Bulk density (Bulk density of the API)	Structure (SMILES)	Solubility in water [1]
		CC(C)COc1ccc(CNC(=O)N(Cc2ccc(F)cc2)C2CCN(C)CC2)cc1 [Pimavanserin tartrate, urea, N-[(4-fluorophenyl)methyl]-N-(1-methyl-4-piperidinyl)-N′-[[4-(2methylpropoxy)phenyl]methyl]-, (2R, 3R)-2,3-dihydroxybutanedioate (2:1)]	freely soluble
about 100 μm	0.374 g/mL	CC(C)COc1ccc(CNC(=O)N(Cc2ccc(F)cc2)C2CCN(C)CC2)cc1 [native amorphous pimavanserin tartrate]	
